Measurements reported in PMC8580050, “Improvement of the antimicrobial potency, pharmacokinetic and pharmacodynamic properties of albicidin by incorporation of nitrogen atoms” (Chemical Science, 2021).
Values after ≈ are worked out from the molar mass of the structure shown. Like-named read-outs stand apart in the source and are kept apart here.

Tests used:
[1] = system: M. phlei DSM 750; test: MIC determination (broth microdilution); format: cell-based, Mycobacterium phlei; conditions: Mycolicibacterium phlei, DSM750; M. phlei DSM 750; read-out: MIC
Procedure: (§1) 1.1.1 In vitro experiments
(§2) Determination of Minimal inhibitory concentrations (MIC)
(§3) Approved Standard M07-A9.1
(§4) CFU mL-1. […] Albicidin and […]
(§5) and serially diluted in DMSO (100%). […]
(§6) in 0.1 N HCL, respectively.
(§7) One row of each well plate served as a […]
(§8) sterility control (only MHB II-media). […]
(§9) adding 5 µL DMSO to several wells. […]
(§10) for growth inhibition by naked eye.

[2] = system: E. coli DSM 1116 + 50% Human Serum; test: MIC determination in presence of 50% human serum; format: cell-based; conditions: Escherichia coli, DSM1116; E. coli DSM 1116 + 50% Human Serum; read-out: MIC
Text: This investigation was completed by assessment of the antibacterial activity in presence of human plasma (50%) (Table 1), since high plasma protein binding can severely impair antibacterial activity and thus efficacy.
as §1, §2, §3, §4, §5, §6, §7, §8, §9, §10
(§11) Microorganisms and Cell Cultures (DSMZ): […]

[3] = system: S. Typhimurium TA100; test: MIC determination (broth microdilution); format: cell-based, Salmonella typhimurium; conditions: Salmonella enterica; S. Typhimurium TA100; read-out: MIC
Procedure: as §1, §2, §3, §4, §5, §6, §7, §8, §9, §10, §11

[4] = target: T1, E. coli DNA gyrase (Escherichia coli, UniProt P0AES4+P0AES6); test: E. coli gyrase supercoiling inhibition assay; format: biochemical; design: key: ↑: for stronger inhibition; ≈: for equal inhibition; ↓: for diminished inhibition compared to albicidin 1; conditions: constant concentration of 45 nM, compared to albicidin 1
T1 construct: purchased inspiralis Limited, Norwich, UK
Procedure: Escherichia coli Gyrase Supercoiling Inhibition Assay
loaded on an agarose gel.
2-15. […] Addition of DNA
All derivatives were tested at a concentration of […]

[5] = system: E. coli DSM 1116; test: MIC determination (broth microdilution); format: cell-based, Escherichia coli; conditions: Escherichia coli, DSM1116
Procedure: as §1, §2, §3, §4, §5, §6, §7, §8, §9, §10, §11

[6] = system: M. luteus DSM1790; test: MIC determination (broth microdilution); format: cell-based, Micrococcus luteus; conditions: M. luteus DSM1790
Procedure: as §1, §2, §3, §4, §5, §6, §7, §8, §9, §10, §11

[7] = system: E. coli BW25113; test: MIC determination (broth microdilution); format: cell-based; conditions: Escherichia coli
Procedure: as §1, §2, §3, §4, §5, §6, §7, §8, §9, §10, §11

[8] = system: B. subtilis DSM 10; test: MIC determination (broth microdilution); format: cell-based; conditions: Bacillus subtilis, DSM10; B. subtilis DSM 10; read-out: MIC
Procedure: as §1, §2, §3, §4, §5, §6, §7, §8, §9, §10, §11

[9] = system: Gram-negative strains; test: MIC, primary panel; format: cell-based; conditions: Salmonella enterica, TYPHIMURIUM
Procedure: as §1, §2, §3, §4, §5, §6, §7, §8, §9, §10
(§12) Microorganisms and Cell Cultures (DSMZ):
Mycobacterium phlei DSM 750
Salmonella typhimurium TA100 was kindly provided by Prof. Dr. Vera Meyer (Technische Universität […]
Brötz-Oesterheldt (Tübingen, Germany)/ Prof. Dr. Heisig (Hamburg, Germany)2 Escherichia coli WT (GK571)
Escherichia coli WT-3-1 (GK796) [gyrA (S83L, D87G)]
Escherichia coli MI (GK572) [gyrA (S83L)] […]
or by Prof. Dr. Werner (Robert-Koch-Institut, Wernigerode, Germany): […]

[10] = system: Gram-positive strains; test: MIC, primary panel; format: cell-based
Procedure: as §1, §2, §3, §4, §5, §6, §7, §8, §9, §10, §12
Mycobacterium phlei DSM 750 […]
Dr. Werner (Robert-Koch-Institut, Wernigerode, Germany): […]

[11] = Cell proliferation assay (HepG2 cells); conditions: human
Procedure: (§13) Cell proliferation assay (HepG2 cells)
(§14) The assay was performed by the company Eurofins (Taiwan). Cytotoxicity was representatively
(§15) according to a protocol by Ansar et al.27 This is in line with previously published cytotoxicity data on
(§16) GI = growth inhibition; TGI = total growth inhibition; LC = lethal concentration

[12] = system: HepG2 cells; test: Cell proliferation assay (HepG2 cells); conditions: HepG2 cells
Procedure: as §13, §14, §15, §16

[13] = target: DNA gyrase; conditions: read-out: half maximum inhibitory concentration (IC50); cited from earlier work
[14] = E. coli DSM 1116, read-out: MIC
[15] = Micrococcus luteus, read-out: MIC

Compound	MIC [1]	MIC [2]	MIC [3]	E. coli gyrase inhibition [4]	MIC [5, 14]	MIC [6, 15]	MIC [7]	MIC [8]	MIC [9]	MIC [5]	MIC [10]	CC50 [11]	GI50 [11]	TGI (total growth inhibition) [12]	IC50 [13]	MIC [6]
COc1c(NC(=O)c2ccc(NC(=O)[C@H](Cc3c[nH]nn3)NC(=O)c3ccc(NC(=O)/C(C)=C/c4ccc(O)cc4)cc3)cc2)ccc(C(=O)Nc2ccccc2)c1O [Compound 15]	2 µg/mL (≈ 2.52 µM)	≥ 8 µg/mL	1 µg/mL (≈ 1.26 µM)	≈	1 µg/mL (≈ 1.26 µM)	1 µg/mL (≈ 1.26 µM)	0.5 µg/mL (≈ 0.629 µM)	2 µg/mL (≈ 2.52 µM)	–	–	–	–	–	–	–	–
COc1c(NC(=O)c2ccc(NC(=O)[C@H](Cc3c[nH]nn3)NC(=O)c3ccc(NC(=O)/C(C)=C/c4ccc(O)cc4)cc3)cc2)ccc(C(=O)Nc2ccc(C(=O)O)cn2)c1O [Compound 13]	4 µg/mL (≈ 4.76 µM)	8 µg/mL	0.016 µg/mL (≈ 0.0191 µM)	≈	–	4 µg/mL (≈ 4.76 µM)	0.125 µg/mL (≈ 0.149 µM)	4 µg/mL (≈ 4.76 µM)	0.125 µg/mL (≈ 0.149 µM)	0.125 µg/mL (≈ 0.149 µM)	4 µg/mL (≈ 4.76 µM)	–	–	–	–	–
COc1c(NC(=O)c2ccc(NC(=O)c3ccc(NC(=O)[C@H](Cc4c[nH]nn4)NC(=O)c4ccc(NC(=O)/C(C)=C/c5ccccn5)cc4)cc3)c(OC)c2O)ccc(C(=O)O)c1O [Compound 3]	64 µg/mL (≈ 73.6 µM)	8 µg/mL	0.125 µg/mL (≈ 0.144 µM)	↓	0.25 µg/mL (≈ 0.287 µM)	32 µg/mL (≈ 36.8 µM)	0.5 µg/mL (≈ 0.575 µM)	4 µg/mL (≈ 4.6 µM)	–	–	–	–	–	–	–	–
COc1c(NC(=O)c2ccc(NC(=O)c3ccc(NC(=O)[C@H](Cc4c[nH]nn4)NC(=O)c4ccc(NC(=O)/C(C)=C/c5ccc(O)cc5)nc4)cc3)c(OC)c2O)ccc(C(=O)O)c1O [Compound 6]	4 µg/mL (≈ 4.52 µM)	1 µg/mL	0.016 µg/mL (≈ 0.0181 µM)	↓	0.016 µg/mL (≈ 0.0181 µM)	4 µg/mL (≈ 4.52 µM)	0.063 µg/mL (≈ 0.0711 µM)	0.5 µg/mL (≈ 0.564 µM)	–	–	–	–	–	–	–	–
CN[C@@H]1C[C@H]2O[C@@](C)([C@@H]1OC)n1c3ccccc3c3c4c(c5c6ccccc6n2c5c31)C(=O)NC4 [Staurosporine, reference compound]	–	–	–	–	–	–	–	–	–	–	–	5810 nM	5.23 nM	< 140 nM	–	–
COc1c(NC(=O)c2ccc(NC(=O)c3ccc(NC(=O)[C@H](Cc4c[nH]nn4)NC(=O)c4ccc(NC(=O)/C(C)=C/c5cccnc5)cc4)cc3)c(OC)c2O)ccc(C(=O)O)c1O [Compound 4]	32 µg/mL (≈ 36.8 µM)	8 µg/mL	0.125 µg/mL (≈ 0.144 µM)	↓	–	32 µg/mL (≈ 36.8 µM)	0.5 µg/mL (≈ 0.575 µM)	2 µg/mL (≈ 2.3 µM)	–	0.125 µg/mL (≈ 0.144 µM)	–	–	–	–	–	–
COc1c(NC(=O)c2ccc(NC(=O)c3ccc(NC(=O)[C@H](Cc4c[nH]nn4)NC(=O)c4ccc(NC(=O)/C(C)=C/c5ccc(O)cc5)cn4)cc3)c(OC)c2O)ccc(C(=O)O)c1O [Compound 5]	4 µg/mL (≈ 4.52 µM)	2 µg/mL	0.031 µg/mL (≈ 0.035 µM)	↑	0.031 µg/mL (≈ 0.035 µM)	0.5 µg/mL (≈ 0.564 µM)	0.031 µg/mL (≈ 0.035 µM)	0.25 µg/mL (≈ 0.282 µM)	–	–	–	–	–	–	–	–
cystobactamid	–	–	–	–	–	–	–	–	–	–	–	–	–	–	80 nM	–
COc1c(NC(=O)c2ccc(NC(=O)c3ccc(NC(=O)[C@H](Cc4c[nH]nn4)NC(=O)c4ccc(NC(=O)/C(C)=C/c5ccc(O)cc5)cc4)cc3)cc2)ccc(C(=O)O)c1O [Compound 11, reference compound]	4 µg/mL (≈ 4.77 µM)	4 µg/mL	0.063 µg/mL (≈ 0.0751 µM)	≈	0.063 µg/mL (≈ 0.0751 µM)	8 µg/mL (≈ 9.54 µM)	0.031 µg/mL (≈ 0.037 µM)	4 µg/mL (≈ 4.77 µM)	–	–	–	–	–	–	–	–
COc1c(NC(=O)c2ccc(NC(=O)[C@H](Cc3c[nH]nn3)NC(=O)c3ccc(NC(=O)/C(C)=C/c4ccc(O)cc4)cc3)cc2)ccc(C(=O)Nc2ccc(C(=O)O)nc2)c1O [Compound 12]	32 µg/mL (≈ 38.1 µM)	≥ 8 µg/mL	0.125 µg/mL (≈ 0.149 µM)	↓	64 µg/mL (≈ 76.2 µM)	32 µg/mL (≈ 38.1 µM)	≥ 128 µg/mL	≥ 128 µg/mL	> 32 µg/mL	–	> 32 µg/mL	–	–	–	–	–
COc1c(NC(=O)c2ccc(NC(=O)c3ccc(NC(=O)[C@H](Cc4c[nH]nn4)NC(=O)c4ccc(NC(=O)/C(C)=C/c5ccc(O)cc5)cc4)cc3)nc2)ccc(C(=O)O)c1O [Compound 10]	2 µg/mL (≈ 2.38 µM)	2 µg/mL	0.016 µg/mL (≈ 0.0191 µM)	↓	0.063 µg/mL (≈ 0.075 µM)	32 µg/mL (≈ 38.1 µM)	0.063 µg/mL (≈ 0.075 µM)	2 µg/mL (≈ 2.38 µM)	–	–	–	–	–	–	–	32.0 µg/mL (≈ 38.1 µM)
COc1c(NC(=O)c2ccc(NC(=O)[C@H](Cc3c[nH]nn3)NC(=O)c3ccc(NC(=O)/C(C)=C/c4ccc(O)cc4)cc3)cc2)ccc(C(=O)Nc2ccc(C(=O)O)cc2)c1O [Compound 14, reference compound]	1 µg/mL (≈ 1.19 µM)	8 µg/mL	0.016 µg/mL (≈ 0.0191 µM)	≈	0.25 µg/mL (≈ 0.298 µM)	2 µg/mL (≈ 2.38 µM)	0.125 µg/mL (≈ 0.149 µM)	0.5 µg/mL (≈ 0.596 µM)	–	–	–	–	–	–	–	–
COc1c(NC(=O)c2ccc(NC(=O)c3ccc(NC(=O)[C@H](Cc4c[nH]nn4)NC(=O)c4ccc(NC(=O)/C(C)=C/c5ccc(O)cc5)cc4)cc3)cn2)ccc(C(=O)O)c1O [Compound 9]	1 µg/mL (≈ 1.19 µM)	≥ 8 µg/mL	0.031 µg/mL (≈ 0.0369 µM)	↓	0.031 µg/mL (≈ 0.0369 µM)	1 µg/mL (≈ 1.19 µM)	0.031 µg/mL (≈ 0.0369 µM)	1 µg/mL (≈ 1.19 µM)	–	–	–	–	–	–	–	–
